This note sets out measurements from ChEMBL document CHEMBL5034018, “LXR-Mediated Regulation of Marine-Derived Piericidins Aggravates High-Cholesterol Diet-Induced Cholesterol Metabolism Disorder in Mice” (J Med Chem, 2021).

Data set [1] deals with T1, Oxysterols receptor LXR-alpha (Homo sapiens, UniProt Q13133).
T1 sequence (Q13133 whole entry): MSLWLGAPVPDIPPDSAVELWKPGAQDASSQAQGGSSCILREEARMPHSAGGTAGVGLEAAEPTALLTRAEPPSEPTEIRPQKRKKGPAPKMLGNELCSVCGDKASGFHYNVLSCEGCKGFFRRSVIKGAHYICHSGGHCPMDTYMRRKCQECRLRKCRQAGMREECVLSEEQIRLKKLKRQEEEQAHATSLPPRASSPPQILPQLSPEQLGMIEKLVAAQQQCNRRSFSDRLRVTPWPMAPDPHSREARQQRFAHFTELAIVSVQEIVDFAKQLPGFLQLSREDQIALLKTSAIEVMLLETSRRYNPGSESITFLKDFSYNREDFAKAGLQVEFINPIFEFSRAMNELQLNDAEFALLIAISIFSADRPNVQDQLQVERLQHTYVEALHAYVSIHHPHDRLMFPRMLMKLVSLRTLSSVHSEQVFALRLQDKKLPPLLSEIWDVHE
Put plainly: Binding affinity to full-length human LXRalpha by surface plasmon resonance assay.

A short description of data set [2]: Hepatotoxicity in renal carcinoma xenografted C57BL/6 mouse assessed as fold increase in plasma ALT at 0.8 mg/kg, ip. Particulars: in vivo. The data set is classed as toxicity, organism-based.
The nature of data set [3]: Hepatotoxicity in renal carcinoma xenografted C57BL/6 mouse assessed as fold increase in plasma AST at 0.8 mg/kg, ip. The data set is classed as toxicity, organism-based. The conditions noted are these: in vivo.
A short description of data set [4]: Induction of Cholesterol accumulation in human HepG2 cells assessed as fold increase in LDL-cholesterol level at 10 uM after 48 hrs. It counts as functional.

`C/C=C(\C)C(=O)[C@H](C)/C=C(C)/C=C/C/C(C)=C/Cc1nc(OC)c(OC)c(O)c1C` gave a Kd in data set [1] of 7.22 µM. In the case of `CNC(=O)c1cc(Oc2ccc(NC(=O)Nc3ccc(Cl)c(C(F)(F)F)c3)cc2)ccn1` [SORAFENIB], the “fold change (FC)” value stood at 4.3 in data set [2] and 2.3 in data set [3].

As to `CC(C)c1c(C(=O)Nc2ccccc2)c(-c2ccccc2)c(-c2ccc(F)cc2)n1CC[C@@H](O)C[C@@H](O)CC(=O)O` [ATORVASTATIN], the “fold change (FC)” value in data set [4] is listed as 2.4.

Compound `O=C(O)Cc1cccc(OCCCN(Cc2cccc(C(F)(F)F)c2Cl)CC(c2ccccc2)c2ccccc2)c1` registered a Kd in data set [1] of 6.97 µM.
